Biological target: LuxS (S-ribosylhomocysteinase) (Streptococcus suis, UniProt A4VZM6)
Test: Ellman (DTNB) homocysteine assay, […] nm, SRH as substrate
Format: biochemical
Details: SRH 0-1200 uM, sodium phosphate buffer, 37 C, 15 min, LuxS 1 mg/mL

Chain of LuxS (S-ribosylhomocysteinase) (A4VZM6 whole entry): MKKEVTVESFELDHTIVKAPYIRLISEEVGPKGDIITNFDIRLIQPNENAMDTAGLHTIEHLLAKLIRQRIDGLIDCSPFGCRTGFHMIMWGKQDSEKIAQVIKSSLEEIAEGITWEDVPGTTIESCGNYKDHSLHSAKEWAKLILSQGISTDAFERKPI

SMILES	Ellman (DTNB) homocysteine assay, 412 nm, SRH as substrate (noncompetitive)	Ellman (DTNB) homocysteine assay, 412 nm, SRH as substrate (competitive)
O=C(/C=C/c1ccc(O)c(O)c1/C=C/c1ccc(O)c(O)c1)O[C@H](Cc1ccc(O)c(O)c1)C(=O)O [SAA, salvianolic acid A]	suggesting a noncompetitive inhibitory effect of SAA on LuxS	
COc1ccc(/C=C/c2cc(O)cc(O[C@@H]3O[C@H](CO)[C@@H](O)[C@H](O)[C@H]3O)c2)cc1O [RH, rhapontin]		indicating a competitive inhibitory impact of RH on LuxS
